Reference: patent publication US20030233678A1, “Pre- and post-harvest inhibition of remobilisation of storage compounds” (Mogen International N.V., priority 1997, published 2003)

Tested on: potato tuber pieces containing at least one active meristem (wild-type and tps)
Experiment: Sprouting of cut tuber pieces incubated on gibberellic acid solutions
Format: in vivo, Solanum tuberosum Var. Kardal
Details: 1, 10 or 1000 ppm solution, 10 min incubation
Procedure: Pat-TPS plants (Var. […]) derived from tissue culture plants were grown in the phytochamber under 500 μmol quanta m-2 s-1 (16 h light, 20° C.; 8 h dark (15° C.)). Tubers were harvested after three months and stored in the cold (4° C.) for 2 months. Three days after transfer to room temperature (RT), tuber pieces were cut with a knife containing at least one active meristem (eye). Cut pieces originating from 3-10 tubers per line were washed for 15 min in tap water. Approximately 6-10 pieces were subsequently incubated for 10 min on either water or on a 1, 10 or 1000 ppm solution of gibberellic acid (GA3, SIGMA, Zwijndrecht, Netherlands). All pieces from one treatment were transferred to containers onto wet paper tissue and covered with a plastic top to prevent drying out.

C=C1C[C@]23C[C@@]1(O)CC[C@H]2[C@@]12C=C[C@H](O)[C@@](C)(C(=O)O1)[C@H]2[C@@H]3C(=O)O [GA3, gibberellic acid]
time until sprouting occurred (tps tuber pieces): ≤ 4 days | time until sprouting occurred (wild-type tuber pieces): ≤ 4 days
